{"source": "paper PMC6130714", "about": "“The α-amylase and α-glucosidase inhibitory activities of the dichloromethane extracts and constituents of Ferulago bracteata roots” (Pharmaceutical Biology, 2017)", "key": {"[1]": {"test_system": "α-Glucosidase", "experiment": "α-Glucosidase inhibitory activity (p-NPG substrate, 96-well plate)", "format": "biochemical", "details": "for α-Glucosidase inhibition (%): mean of three replicates", "protocol": "α-Glucosidase inhibitory activity was established by using a 96-well microtiter plate in accordance with the described method (Tao et al. […] Samples were dissolved in dimethyl sulfoxide (DMSO) and all samples (20 µL) together with the enzyme solution (20 µL) were mixed in the plate. Afterwards, the substrate (40 µL) was added for initiation of the reaction and the mixture was incubated at 37 °C for 40 min. After incubation is complete, 0.2 M sodium carbonate (80 µL) in phosphate buffer (pH 6.8) was added to all wells in order to quench the reaction. The amount of released p-nitrophenol (pNP) was measured at 405 nm using a 96-well microplate reader. Each assay for all samples was carried out in triplicate. […] All results are expressed as mean ± SE and differences between means were statistically analyzed using one-way analysis of ANOVA followed by Bonferroni’s complementary analysis, with p < 0.05 considered to indicate statistical significance."}, "[2]": {"test_system": "α-amylase", "experiment": "α-Amylase inhibitory activity (starch, dinitrosalicylic acid)", "format": "biochemical", "details": "concentration 1 mg/mL", "protocol": "α-Amylase inhibitory activity was established in accordance with the reported method (Nampoothiri et al. [2011]) with slight modifications. One percent starch solution (100 µL) in 20 mM sodium phosphate buffer (pH 6.9 with 6 mM sodium chloride) and sample solutions (100 µL) were incubated at 25 °C for 10 min in 24-well microplate. After incubation, 100 µL α-amylase solution (0.5 mg/mL) was added to each well and the reaction mixtures were incubated at 25 °C for 10 min. In order to stop the reaction after the incubation, dinitrosalicylic acid color reagent (200 µL) was added and then the microplate was incubated in a boiling water bath for 5 min and cooled at room temperature. 50 µL was taken from each well and then was added to 96-well microplate. The reaction mixture was diluted by adding 200 µL distilled water and absorbance was measured at 540 nm. Each assay for all samples was carried out in triplicate. Percentage inhibitions of all samples were calculated using the equation at following: Inhibition %=1-ΔAsample /ΔAcontrol×100\nAll results are expressed as mean ± SE and differences between means were statistically analyzed using one-way analysis of ANOVA followed by Bonferroni’s complementary analysis, with p < 0.05 considered to indicate statistical significance."}, "[3]": {"test_system": "α-Glucosidase", "details": "cited from earlier work; for α-glucosidase inhibitory activity (in words): compared to acarbose, ref Luo et al. [2012]"}}, "note": "Where two headings read alike, the source gives them in different places.", "data": [{"smiles": "C[C@H]1O[C@H](O[C@H]2[C@H](O)[C@@H](O)[C@@H](O[C@H]3[C@H](O)[C@@H](O)C(O)O[C@@H]3CO)O[C@@H]2CO)[C@H](O)[C@@H](O)[C@@H]1N[C@H]1C=C(CO)[C@@H](O)[C@H](O)[C@H]1O", "note": "(some centres unmarked) [Acarbose, acarbose, reference compound]", "values": [{"measurement": "α-Glucosidase inhibition (%)", "setting": "[1]; concentration 2000 µg/mL", "result": "29.43 ± 1.71", "unit": "%"}, {"measurement": "α-Glucosidase inhibition (%)", "setting": "[1]; concentration 5000 µg/mL", "result": "50.81 ± 2.51", "unit": "%"}, {"measurement": "α-amylase inhibition", "setting": "[2]", "result": 82.28, "unit": "%"}]}, {"smiles": "CC(C)=CC(=O)OC(Cc1cc2ccc(=O)oc2cc1O)C(C)(C)O", "note": "(centres unmarked) [Grandivitinol, grandivitinol]", "values": [{"measurement": "IC50 value (α-glucosidase)", "setting": "[1]", "result": 20010, "unit": "µg/mL"}, {"measurement": "α-Glucosidase inhibition (%)", "setting": "[1]; concentration 2000 µg/mL", "result": "7.84 ± 0.71", "unit": "%"}, {"measurement": "α-Glucosidase inhibition (%)", "setting": "[1]; concentration 5000 µg/mL", "result": "12.30 ± 0.36", "unit": "%"}]}, {"smiles": "COc1c2ccoc2cc2oc(=O)ccc12", "note": "[Bergapten, bergapten]", "values": [{"measurement": "IC50 value (α-glucosidase)", "setting": "[1]", "result": 6120, "unit": "µg/mL"}, {"measurement": "α-Glucosidase inhibition (%)", "setting": "[1]; concentration 2000 µg/mL", "result": "39.71 ± 2.44", "unit": "%"}, {"measurement": "α-Glucosidase inhibition (%)", "setting": "[1]; concentration 5000 µg/mL", "result": "42.26 ± 0.43", "unit": "%"}, {"measurement": "α-glucosidase inhibitory activity (in words)", "setting": "[3]", "result": "too low to compare to that of acarbose"}]}, {"smiles": "COc1ccc2ccc(=O)oc2c1CC=C(C)C", "note": "[Osthole, osthole]", "values": [{"measurement": "IC50 value (α-glucosidase)", "setting": "[1]", "result": 950, "unit": "µg/mL"}, {"measurement": "α-Glucosidase inhibition (%)", "setting": "[1]; concentration 2000 µg/mL", "result": "84.31 ± 1.72", "unit": "%"}, {"measurement": "α-Glucosidase inhibition (%)", "setting": "[1]; concentration 5000 µg/mL", "result": "93.31 ± 0.29", "unit": "%"}]}, {"smiles": "COc1cc2oc(=O)ccc2cc1CC=C(C)C", "note": "[Suberosin, suberosin]", "values": [{"measurement": "IC50 value (α-glucosidase)", "setting": "[1]", "result": 890, "unit": "µg/mL"}, {"measurement": "α-Glucosidase inhibition (%)", "setting": "[1]; concentration 2000 µg/mL", "result": "81.58 ± 1.15", "unit": "%"}, {"measurement": "α-Glucosidase inhibition (%)", "setting": "[1]; concentration 5000 µg/mL", "result": "87.95 ± 1.07", "unit": "%"}]}, {"smiles": "COc1c2occc2cc2ccc(=O)oc12", "note": "[Xanthotoxin, xanthotoxin]", "values": [{"measurement": "IC50 value (α-glucosidase)", "setting": "[1]", "result": 5380, "unit": "µg/mL"}, {"measurement": "α-Glucosidase inhibition (%)", "setting": "[1]; concentration 2000 µg/mL", "result": "37.95 ± 8.64", "unit": "%"}, {"measurement": "α-Glucosidase inhibition (%)", "setting": "[1]; concentration 5000 µg/mL", "result": "45.76 ± 4.82", "unit": "%"}, {"measurement": "α-glucosidase inhibitory activity (in words)", "setting": "[3]", "result": "too low to compare to that of acarbose"}]}, {"smiles": "O=c1ccc2ccc(O)cc2o1", "note": "[Umbelliferone, umbelliferone]", "values": [{"measurement": "IC50 value (α-glucosidase)", "setting": "[1]", "result": 9320, "unit": "µg/mL"}, {"measurement": "α-Glucosidase inhibition (%)", "setting": "[1]; concentration 2000 µg/mL", "result": "8.84 ± 0.02", "unit": "%"}, {"measurement": "α-Glucosidase inhibition (%)", "setting": "[1]; concentration 5000 µg/mL", "result": "10.27 ± 0.49", "unit": "%"}, {"measurement": "α-glucosidase IC50 value", "setting": "[3]; at 0.5 mg/mL, ref Ayyasamy & Rajamanickam 2015", "result": 547, "unit": "µg/mL"}]}, {"smiles": "CC(C)(OC(=O)c1ccccc1)[C@@H]1Cc2cc3ccc(=O)oc3cc2O1", "note": "[Felamidin, felamidin]", "values": [{"measurement": "IC50 value (α-glucosidase)", "setting": "[1]", "result": 420, "unit": "µg/mL"}, {"measurement": "α-Glucosidase inhibition (%)", "setting": "[1]; concentration 2000 µg/mL", "result": "64.93 ± 2.06", "unit": "%"}, {"measurement": "α-Glucosidase inhibition (%)", "setting": "[1]; concentration 5000 µg/mL", "result": "94.57 ± 0.05", "unit": "%"}, {"measurement": "times more effective than acarbose against α-glucosidase", "setting": "[1]; ratio of IC50 values vs acarbose", "result": 11, "unit": "times"}]}, {"smiles": "CC(C)=CC(=O)OC(C)(C)C1Cc2cc3ccc(=O)oc3cc2O1", "note": "(centres unmarked) [Prantschimgin, prantschimgin]", "values": [{"measurement": "IC50 value (α-glucosidase)", "setting": "[1]", "result": 1860, "unit": "µg/mL"}, {"measurement": "α-Glucosidase inhibition (%)", "setting": "[1]; concentration 2000 µg/mL", "result": "51.95 ± 0.01", "unit": "%"}, {"measurement": "α-Glucosidase inhibition (%)", "setting": "[1]; concentration 5000 µg/mL", "result": "68.23 ± 0.39", "unit": "%"}]}, {"smiles": "CC(C)=CCOc1c2occc2cc2ccc(=O)oc12", "note": "[Imperatorin, imperatorin]", "values": [{"measurement": "IC50 value (α-glucosidase)", "setting": "[1]", "result": 1230, "unit": "µg/mL"}, {"measurement": "α-Glucosidase inhibition (%)", "setting": "[1]; concentration 2000 µg/mL", "result": "63.07 ± 0.69", "unit": "%"}, {"measurement": "α-Glucosidase inhibition (%)", "setting": "[1]; concentration 5000 µg/mL", "result": "88.97 ± 0.88", "unit": "%"}, {"measurement": "α-Glucosidase inhibition (%)", "setting": "[3]; at 1000 µg/mL, ref Shalaby et al. [2014]", "result": "69.66 ± 3.67", "unit": "%"}, {"measurement": "α-glucosidase inhibitory activity (in words)", "setting": "[3]", "result": "too low to compare to that of acarbose"}]}, {"smiles": "CC(C)(O)C(Cc1cc2ccc(=O)oc2cc1O)OC(=O)c1ccccc1", "note": "(centres unmarked) [Peucedanol-2'-benzoate, peucedanol-2′-benzoate]", "values": [{"measurement": "α-Glucosidase inhibition (%)", "setting": "[1]; concentration 2000 µg/mL", "result": "66.86 ± 0.37", "unit": "%"}, {"measurement": "α-Glucosidase inhibition (%)", "setting": "[1]; concentration 5000 µg/mL", "result": "77.22 ± 0.44", "unit": "%"}]}]}
